Measured values as given in patent US9453026B2, “ACC inhibitors and uses thereof” (Gilead Apollo, Inc., priority 2011, dated 2016).
pIC50: −log10 of the molar value.

Biological target: ACC2 (Homo sapiens, UniProt O00763)
Test: In vitro ACC2 inhibition assay (ADP-Glo)
Type: biochemical
Conditions: read-out: ACC2
Protocol: An exemplary procedure for the in vitro ACC inhibition assay, which can be used to determine the inhibitory action of compounds of the invention toward either ACC1 or ACC2, follows. The ADP-Glo™ Kinase Assay kit from Promega was used. The ADP-Glo™ Kinase Assay is a luminescent ADP detection assay to measure enzymatic activity by quantifying the amount of ADP produced during an enzyme reaction. The assay is performed in two steps; first, after the enzyme reaction, an equal volume of ADP-Glo™ Reagent is added to terminate the reaction and deplete the remaining ATP. Second, the Kinase Detection Reagent is added to simultaneously convert ADP to ATP and allow the newly synthesized ATP to be measured using a luciferase/luciferin reaction. Luminescence can be correlated to ADP concentrations by using an ATP-to-ADP conversion curve. The detailed procedure is as follows. 50 μL of the compound being tested (600 uM in DMSO) was added to a 384-well dilution plate. The compound was diluted 1:3 in succession in DMSO for each row for 11 wells. 0.5 μL ACC2 working solution was added to 384-well white Optiplate assay plate. 0.5 μL diluted compound solution in each column from step 2 to assay plate, each row containing 2 replicates. […] The plates were incubated at room temperature for 15 minutes. 5 μL substrate working solution was added to each well to initiate reaction. […] Plates were incubated at room temperature for 60 minutes. 10 μL ADP glo reagent was added. Plates were incubated at room temperature for 40 minutes. 20 μL kinase detection reagent was added.
Data for each concentration, as well as the positive and negative controls were averaged, and the standard deviation calculated. Percent inhibition was calculated by the formula: 100× (average negative control−compound)/(average negative control−average positive control). The IC50 for each compound was calculated by fitting the data with a non-linear regression equation: Y=Bottom+(Top-Bottom)/(1+10^((Log IC50−X)*HillSlope)), where X is the log of compound concentration and Y is percent inhibition.
The compound numbers correspond to the compound numbers in Table 1.

ACC2, sequence (O00763 whole entry, species assumed): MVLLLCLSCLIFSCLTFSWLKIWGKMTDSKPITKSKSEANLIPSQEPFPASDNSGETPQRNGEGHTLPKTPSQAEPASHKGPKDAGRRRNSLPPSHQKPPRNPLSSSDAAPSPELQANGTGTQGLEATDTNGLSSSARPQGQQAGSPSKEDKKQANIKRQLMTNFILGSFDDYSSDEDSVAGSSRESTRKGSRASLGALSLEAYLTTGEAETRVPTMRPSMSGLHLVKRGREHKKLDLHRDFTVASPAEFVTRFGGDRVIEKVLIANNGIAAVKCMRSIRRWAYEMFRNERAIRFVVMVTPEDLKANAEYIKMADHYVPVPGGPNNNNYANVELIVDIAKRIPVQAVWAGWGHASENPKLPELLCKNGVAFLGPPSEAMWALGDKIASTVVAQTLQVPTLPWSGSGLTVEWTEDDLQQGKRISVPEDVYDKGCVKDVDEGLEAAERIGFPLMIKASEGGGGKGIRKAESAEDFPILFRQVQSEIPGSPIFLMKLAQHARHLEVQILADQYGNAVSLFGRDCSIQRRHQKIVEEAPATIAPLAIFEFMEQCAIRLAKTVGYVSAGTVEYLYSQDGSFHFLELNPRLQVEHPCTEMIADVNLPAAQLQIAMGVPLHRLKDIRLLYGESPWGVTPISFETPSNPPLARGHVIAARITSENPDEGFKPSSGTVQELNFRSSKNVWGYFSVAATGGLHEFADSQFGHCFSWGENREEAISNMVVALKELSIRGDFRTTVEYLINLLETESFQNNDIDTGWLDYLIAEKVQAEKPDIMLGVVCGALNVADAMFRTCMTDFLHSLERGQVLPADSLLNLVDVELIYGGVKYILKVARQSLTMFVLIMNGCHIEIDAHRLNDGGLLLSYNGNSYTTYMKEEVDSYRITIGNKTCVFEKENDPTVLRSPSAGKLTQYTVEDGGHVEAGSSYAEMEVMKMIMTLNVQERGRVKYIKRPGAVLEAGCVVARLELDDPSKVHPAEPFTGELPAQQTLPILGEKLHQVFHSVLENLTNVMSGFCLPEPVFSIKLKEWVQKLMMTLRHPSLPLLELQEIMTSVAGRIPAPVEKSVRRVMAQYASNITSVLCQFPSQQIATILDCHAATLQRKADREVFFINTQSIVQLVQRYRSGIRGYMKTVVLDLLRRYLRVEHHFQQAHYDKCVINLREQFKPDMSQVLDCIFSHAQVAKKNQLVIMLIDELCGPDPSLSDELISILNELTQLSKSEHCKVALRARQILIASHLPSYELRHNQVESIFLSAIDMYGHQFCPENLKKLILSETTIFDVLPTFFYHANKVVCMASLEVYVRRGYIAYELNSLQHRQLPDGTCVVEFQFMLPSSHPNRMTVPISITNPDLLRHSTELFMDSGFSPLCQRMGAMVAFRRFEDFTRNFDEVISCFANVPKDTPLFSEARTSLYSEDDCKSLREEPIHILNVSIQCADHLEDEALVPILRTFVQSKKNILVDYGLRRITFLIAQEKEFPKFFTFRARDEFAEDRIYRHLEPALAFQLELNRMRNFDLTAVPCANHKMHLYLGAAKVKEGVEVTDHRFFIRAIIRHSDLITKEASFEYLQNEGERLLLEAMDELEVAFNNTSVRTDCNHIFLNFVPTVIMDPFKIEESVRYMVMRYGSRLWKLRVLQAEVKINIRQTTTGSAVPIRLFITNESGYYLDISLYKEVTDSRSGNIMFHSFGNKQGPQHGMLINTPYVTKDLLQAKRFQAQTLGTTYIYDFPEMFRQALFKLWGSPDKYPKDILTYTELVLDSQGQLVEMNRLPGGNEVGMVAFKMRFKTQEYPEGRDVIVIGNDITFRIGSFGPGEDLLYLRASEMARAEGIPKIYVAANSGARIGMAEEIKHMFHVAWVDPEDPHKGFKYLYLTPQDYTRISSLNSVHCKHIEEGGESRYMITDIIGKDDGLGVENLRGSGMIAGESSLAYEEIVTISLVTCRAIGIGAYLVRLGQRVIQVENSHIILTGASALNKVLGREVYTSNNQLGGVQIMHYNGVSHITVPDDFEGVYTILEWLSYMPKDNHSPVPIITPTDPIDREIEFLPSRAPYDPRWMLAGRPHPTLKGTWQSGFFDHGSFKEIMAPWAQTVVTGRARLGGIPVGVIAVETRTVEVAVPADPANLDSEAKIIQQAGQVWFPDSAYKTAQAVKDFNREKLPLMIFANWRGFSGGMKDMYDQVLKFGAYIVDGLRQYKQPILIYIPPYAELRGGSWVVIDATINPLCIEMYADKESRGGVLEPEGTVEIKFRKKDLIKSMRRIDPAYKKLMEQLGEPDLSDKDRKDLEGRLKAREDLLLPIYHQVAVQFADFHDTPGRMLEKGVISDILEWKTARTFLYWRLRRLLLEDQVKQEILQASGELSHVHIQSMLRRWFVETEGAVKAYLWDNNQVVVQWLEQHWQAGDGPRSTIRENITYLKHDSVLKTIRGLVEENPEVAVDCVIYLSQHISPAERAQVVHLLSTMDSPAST

Row | pIC50 | SMILES
1 | 4.70 to 5.30 | CCOC(=O)c1sc2c(c1C)c(=O)n(C(C)(C)C(=O)O)c(=O)n2C[C@H](OC(C)C)c1ccc(I)cc1 [I-129, (R)-2-(6-(ethoxycarbonyl)-1-(2-(4-iodophenyl)-2-isopropoxyethyl)-5-methyl-2,4-dioxo-1,2-dihydrothieno[2,3-d]pyrimidin-3(4H)-yl)-2-methylpropanoic acid]
2 | > 7.00 | Cc1c(-c2ncco2)sc2c1c(=O)n(C(C)(C)C(=O)O)c(=O)n2C[C@H](OC1CCOCC1)c1ccccc1CO [I-296, 2-[1-[(2R)-2-[2-(hydroxymethyl)phenyl]-2-(oxan-4-yloxy)ethyl]-5-methyl-6-(1,3-oxazol-2-yl)-2,4-dioxo-1H,2H,3H,4H-thieno[2,3-d]pyrimidin-3-yl]-2-methylpropanoic acid]
3 | 4.70 to 5.30 | Cc1c(-c2ncco2)sc2c1c(=O)n(C(C)(C)C(=O)O)c(=O)n2C[C@@H](OC(C)C)c1ccccc1 [I-120, 2-methyl-2-[5-methyl-6-(1,3-oxazol-2-yl)-2,4-dioxo-1-[(2S)-2-phenyl-2-(propan-2-yloxy)ethyl]-1H,2H,3H,4H-thieno[2,3-d]pyrimidin-3-yl]propanoic acid]
4 | > 7.00 | CCOc1ccccc1[C@H](Cn1c(=O)n(C(C)(C)C(=O)O)c(=O)c2c(C)c(-c3ncco3)sc21)OC1CCOCC1 [I-183, 2-[1-[(2R)-2-(2-ethoxyphenyl)-2-(oxan-4-yloxy)ethyl]-5-methyl-6-(1,3-oxazol-2-yl)-2,4-dioxo-1H,2H,3H,4H-thieno[2,3-d]pyrimidin-3-yl]-2-methylpropanoic acid]
5 | 4.70 to 5.30 | CCOC(=O)c1sc2c(c1C)c(=O)n(C[C@@H](C)O)c(=O)n2CCc1ccccc1 [I-81, ethyl 3-[(2R)-2-hydroxypropyl]-5-methyl-2,4-dioxo-1-(2-phenylethyl)-1H,2H,3H,4H-thieno[2,3-d]pyrimidine-6-carboxylate]
6 | > 7.00 | COc1ccccc1[C@H](Cn1c(=O)n(C(C)(C)C(=O)NS(C)(=O)=O)c(=O)c2c(C)c(-c3ncco3)sc21)OC(C)C [I-240, N-methanesulfonyl-2-[1-[(2R)-2-(2-methoxyphenyl)-2-(propan-2-yloxy)ethyl]-5-methyl-6-(1,3-oxazol-2-yl)-2,4-dioxo-1H,2H,3H,4H-thieno[2,3-d]pyrimidin-3-yl]-2-methylpropanamide]
7 | > 6.00 | Cc1c(-c2ncco2)sc2c1c(=O)n(C(C)(C)C(=O)O)c(=O)n2C[C@H](OC[C@H](C)CO)c1ccccc1 [I-170, 2-(1-((R)-2-((R)-3-hydroxy-2-methylpropoxy)-2-phenylethyl)-5-methyl-6-(oxazol-2-yl)-2,4-dioxo-1,2-dihydrotheno[2,3-d]pyrimidin-3(4H)-yl)-2-methylpropanoic acid]
8 | > 5.30 | Cc1c(-c2ncco2)sc2c1c(=O)n(C(C)(C)C(=O)O)c(=O)n2C[C@H](OCc1ccccc1)c1ccccc1 [I-136, 2-[1-[(2R)-2-(benzyloxy)-2-phenylethyl]-5-methyl-6-(1,3-oxazol-2-yl)-2,4-dioxo-1H,2H,3H,4H-thieno[2,3-d]pyrimidin-3-yl]-2-methylpropanoic acid]
9 | 4.30 to 4.70 | CCOC(=O)c1sc2c(c1C)c(=O)n(CC(=O)O)c(=O)n2C[C@@H](OC)c1ccccc1 [I-104, 2-[6-(ethoxycarbonyl)-1-[(2S)-2-methoxy-2-phenylethyl]-5-methyl-2,4-dioxo-1H,2H,3H,4H-thieno[2,3-d]pyrimidin-3-yl]acetic acid]
10 | > 5.30 | COc1ccccc1[C@H](Cn1c(=O)n(C(C)(C)C(=O)NCCO)c(=O)c2c(C)c(-c3ncco3)sc21)OC(C)C [I-257, N-(2-hydroxyethyl)-2-[1-[(2R)-2-(2-methoxyphenyl)-2-(propan-2-yloxy)ethyl]-5-methyl-6-(1,3-oxazol-2-yl)-2,4-dioxo-1H,2H,3H,4H-thieno[2,3-d]pyrimidin-3-yl]-2-methylpropanamide]
11 | > 5.30 | Cc1c(-c2ncc(Cl)o2)sc2c1c(=O)n(C(C)(C)C(=O)O)c(=O)n2C[C@H](OC(C)C)c1ccccc1 [I-156, 2-[6-(5-chloro-1,3-oxazol-2-yl)-5-methyl-2,4-dioxo-1-[(2R)-2-phenyl-2-(propan-2-yloxy)ethyl]-1H,2H,3H,4H-thieno[2,3-d]pyrimidin-3-yl]-2-methylpropanoic acid]
12 | > 6.00 | CCOC(=O)c1sc2c(c1C)c(=O)n(C(C)(C)C(=O)O)c(=O)n2CC(O)c1ccccc1 (stereo in doubt) [I-103, 2-[6-(ethoxycarbonyl)-1-[(2S)-2-hydroxy-2-phenylethyl]-5-methyl-2,4-dioxo-1H,2H,3H,4H-thieno[2,3-d]pyrimidin-3-yl]-2-methylpropanoic acid]
13 | > 5.30 | Cc1c(-c2ncco2)sc2c1c(=O)n(C(C)(C)C(=O)O)c(=O)n2CCc1ccccc1 [I-117, 2-methyl-2-[5-methyl-6-(1,3-oxazol-2-yl)-2,4-dioxo-1-(2-phenylethyl)-1H,2H,3H,34H-thieno[2,3-d]pyrimidin-3-yl]propanoic acid]

Continued, molecule first:

Row | SMILES | pIC50
14 | CCOC(=O)c1sc2c(c1C)c(=O)n(CCO)c(=O)n2CCc1c(F)cccc1F [I-24] | < 4.30
15 | CCOC(=O)c1sc2c(c1C)c(=O)n(CCO)c(=O)n2Cc1csc(C)n1 [I-35] | < 4.30
16 | CCOC(=O)c1sc2c(c1C)c(=O)n([C@H](C)C(=O)O)c(=O)n2CCc1ccccc1 [I-76, (2R)-2-[6-(ethoxycarbonyl)-5-methyl-2,4-dioxo-1-(2-phenylethyl)-1H,2H,3H,4H-thieno[2,3-d]pyrimidin-3-yl]propanoic acid] | > 5.30
17 | Cc1c(C(N)=O)sc2c1c(=O)n(CC(=O)O)c(=O)n2CCc1ccccc1 [I-71, 2-[6-carbamoyl-5-methyl-2,4-dioxo-1-(2-phenylethyl)-1H,2H,3H,4H-thieno[2,3-d]pyrimidin-3-yl]acetic acid] | < 4.30
18 | CCOC(=O)c1sc2c(c1C)c(=O)n(CC(=O)O)c(=O)n2Cc1ccc2ccn(C)c2c1 [I-74, 2-[6-(ethoxycarbonyl)-5-methyl-1-[(1-methyl-1H-indol-6-yl)methyl]-2,4-dioxo-1H,2H,3H,4H-thieno[2,3-d]pyrimidin-3-yl]acetic acid] | 4.70 to 5.30
19 | COC(=O)c1sc2c(c1C)c(=O)n(CCO)c(=O)n2CCc1ccccc1 [I-37, methyl 3-(2-hydroxyethyl)-5-methyl-2,4-dioxo-1-(2-phenylethyl)-1H,2H,3H,4H-thieno[2,3-d]pyrimidine-6-carboxylate] | 4.70 to 5.30
20 | Cc1c(C(=O)O)sc2c1c(=O)n(CCO)c(=O)n2CCc1ccccc1 [I-5] | < 4.30
21 | Cc1csc2c1c(=O)n(CC(=O)O)c(=O)n2CCc1ccccc1 [I-63] | 4.30 to 4.70
22 | CCOC(=O)c1sc2c(c1C)c(=O)n(CCO)c(=O)n2Cc1ccc2ccn(C)c2c1 [I-64] | < 4.30
23 | CCOC(=O)c1sc2c(c1C)c(=O)n(C(C)(C)C(=O)O)c(=O)n2C[C@H](OC(C)(C)C)c1ccccc1 [I-127, 2-[1-[(2R)-2-(tert-butoxy)-2-phenylethyl]-6-(ethoxycarbonyl)-5-methyl-2,4-dioxo-1H,2H,3H,4H-thieno[2,3-d]pyrimidin-3-yl]-2-methylpropanoic acid] | 4.30 to 4.70
24 | CCOC(=O)c1sc2c(c1C)c(=O)n(CCOC)c(=O)n2CCc1ccccc1 [I-6, ethyl 3-(2-methoxyethyl)-5-methyl-2,4-dioxo-1-(2-phenylethyl)-1H,2H,3H,4H-thieno[2,3-d]pyrimidine-6-carboxylate] | 4.30 to 4.70
25 | CCOC(=O)c1sc2c(c1C)c(=O)n(CCO)c(=O)n2CCc1cccc2ccccc12 [I-22] | < 4.30
